Results taken from US10442796B2, “2,3,5-substituted thiophene compound as protein kinase inhibitor” (KOREA INSTITUTE OF SCIENCE AND TECHNOLOGY, priority 2016, dated 2019).

Tests used:
Assay in all cases: Kinase inhibitory activity, full kinase panel
Assay type in all cases: biochemical
Conditions in all cases: single concentration of 1 μM, read-out: %Inhibitory ability
SYK = SYK (Homo sapiens, UniProt P43405)
Protocol: (§1) In order to measure inhibitory activity (% inhibitory ability) against a protein kinase with respect to the compound of the present invention, a biochemical assay was performed in a full kinase panel shown in the following Table 1. As an experimental compound, the (S)-5-((3-fluorophenyl)ethynyl)-N-(piperidin-3-yl)-3-ureidothiophene-2-carboxamide synthesized in Example 24 was used.

PDGFRB = PDGFRB (Homo sapiens, UniProt P09619)
Protocol: as §1

BLK = BLK (Homo sapiens, UniProt P51451)
Protocol: as §1

FYN = FYN (Homo sapiens, UniProt P06241)
Protocol: as §1

PAK6 = PAK6 (Homo sapiens, UniProt Q9NQU5)
PAK6, sequence (Q9NQU5 whole entry): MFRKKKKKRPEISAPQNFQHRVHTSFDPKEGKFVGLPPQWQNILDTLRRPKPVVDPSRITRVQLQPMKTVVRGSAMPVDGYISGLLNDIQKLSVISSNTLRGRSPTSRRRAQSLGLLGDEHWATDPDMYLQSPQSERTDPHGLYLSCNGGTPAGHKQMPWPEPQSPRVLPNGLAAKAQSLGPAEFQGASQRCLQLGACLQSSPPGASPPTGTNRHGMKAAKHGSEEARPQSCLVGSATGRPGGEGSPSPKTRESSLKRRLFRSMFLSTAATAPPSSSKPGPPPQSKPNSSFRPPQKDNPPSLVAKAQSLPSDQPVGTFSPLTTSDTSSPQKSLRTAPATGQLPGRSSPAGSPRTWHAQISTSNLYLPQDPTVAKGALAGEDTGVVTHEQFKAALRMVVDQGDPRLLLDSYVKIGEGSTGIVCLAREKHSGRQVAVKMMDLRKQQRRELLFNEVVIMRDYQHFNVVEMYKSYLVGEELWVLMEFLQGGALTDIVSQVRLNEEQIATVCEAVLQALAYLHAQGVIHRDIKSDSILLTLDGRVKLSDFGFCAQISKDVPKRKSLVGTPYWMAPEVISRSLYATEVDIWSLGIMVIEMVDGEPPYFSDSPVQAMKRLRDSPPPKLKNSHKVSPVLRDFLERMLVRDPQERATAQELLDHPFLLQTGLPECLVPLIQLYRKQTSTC
Protocol: as §1

MAP4K2 = MAP4K2 (Homo sapiens, UniProt Q12851)
Protocol: as §1

LRRK2 = LRRK2 (Homo sapiens, UniProt Q5S007)
Protocol: as §1

CHEK2 = CHEK2 (Homo sapiens, UniProt O96017)
Protocol: as §1

MEK5 = MEK5 (Homo sapiens, UniProt Q13163)
Protocol: as §1

SRC = SRC (Homo sapiens, UniProt P12931)
SRC, sequence (P12931 whole entry, species assumed): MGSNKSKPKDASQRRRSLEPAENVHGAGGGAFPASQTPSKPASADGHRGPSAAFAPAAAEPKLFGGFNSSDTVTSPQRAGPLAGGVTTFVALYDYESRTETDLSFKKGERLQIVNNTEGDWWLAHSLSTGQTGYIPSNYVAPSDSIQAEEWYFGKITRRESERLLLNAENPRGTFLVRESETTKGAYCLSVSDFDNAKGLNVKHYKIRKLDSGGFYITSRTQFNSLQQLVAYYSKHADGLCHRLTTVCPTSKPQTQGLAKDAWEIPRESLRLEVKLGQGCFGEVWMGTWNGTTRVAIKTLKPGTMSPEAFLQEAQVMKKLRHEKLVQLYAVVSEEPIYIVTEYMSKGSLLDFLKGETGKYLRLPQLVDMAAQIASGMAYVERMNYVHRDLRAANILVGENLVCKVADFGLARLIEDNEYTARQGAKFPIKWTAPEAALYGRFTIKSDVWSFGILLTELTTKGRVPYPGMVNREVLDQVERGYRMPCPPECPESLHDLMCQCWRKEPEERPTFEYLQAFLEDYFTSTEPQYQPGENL
Protocol: as §1

ULK2 = ULK2 (Homo sapiens, UniProt Q8IYT8)
Protocol: as §1

SIK = SIK (Homo sapiens, UniProt P57059)
Protocol: as §1

CSK = CSK (Homo sapiens, UniProt P41240)
Protocol: as §1

RIPK4 = RIPK4 (Homo sapiens, UniProt P57078)
Protocol: as §1

EPHA3 = EPHA3 (Homo sapiens, UniProt P29320)
Protocol: as §1

BUB1 = BUB1 (Homo sapiens, UniProt O43683)
Protocol: as §1

PAK4 = PAK4 (Homo sapiens, UniProt O96013)
Protocol: as §1

AAK1 = AAK1 (Homo sapiens, UniProt Q2M2I8)
Protocol: as §1

SIK2 = SIK2 (Homo sapiens, UniProt Q9H0K1)
Protocol: as §1

ANKK1 = ANKK1 (Homo sapiens, UniProt Q8NFD2)
Protocol: as §1

YANK2 = YANK2 (Homo sapiens, UniProt Q9NY57)
Protocol: as §1

MLK1 = MLK1 (Homo sapiens, UniProt P80192)
Protocol: as §1

DAPK3 = DAPK3 (Homo sapiens, UniProt O43293)
Protocol: as §1

MARK2 = MARK2 (Homo sapiens, UniProt Q7KZI7)
Protocol: as §1

ULK1 = ULK1 (Homo sapiens, UniProt O75385)
Protocol: as §1

MST1 = MST1 (Homo sapiens, UniProt Q13043)
Protocol: as §1

MEK2 = MEK2 (Homo sapiens, UniProt P36507)
Protocol: as §1

JAK2 = JAK2 (Homo sapiens, UniProt O60674)
Protocol: as §1

PLK4 = PLK4 (Homo sapiens, UniProt O00444)
Protocol: as §1

YANK1 = YANK1 (Homo sapiens, UniProt Q8WU08)
YANK1, sequence (Q8WU08 whole entry, species assumed): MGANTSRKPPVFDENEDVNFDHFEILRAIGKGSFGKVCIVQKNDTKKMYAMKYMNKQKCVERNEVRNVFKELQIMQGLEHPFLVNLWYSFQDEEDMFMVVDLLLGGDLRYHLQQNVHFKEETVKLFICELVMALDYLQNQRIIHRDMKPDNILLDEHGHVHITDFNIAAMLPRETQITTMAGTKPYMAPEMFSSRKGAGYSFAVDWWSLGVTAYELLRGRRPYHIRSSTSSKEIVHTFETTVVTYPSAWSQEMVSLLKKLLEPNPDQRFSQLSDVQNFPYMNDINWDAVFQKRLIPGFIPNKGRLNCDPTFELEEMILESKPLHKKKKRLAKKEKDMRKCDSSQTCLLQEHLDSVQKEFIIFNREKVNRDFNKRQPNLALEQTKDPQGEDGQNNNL
Protocol: as §1

MAP3K3 = MAP3K3 (Homo sapiens, UniProt Q99759)
MAP3K3, sequence (Q99759 whole entry, species assumed): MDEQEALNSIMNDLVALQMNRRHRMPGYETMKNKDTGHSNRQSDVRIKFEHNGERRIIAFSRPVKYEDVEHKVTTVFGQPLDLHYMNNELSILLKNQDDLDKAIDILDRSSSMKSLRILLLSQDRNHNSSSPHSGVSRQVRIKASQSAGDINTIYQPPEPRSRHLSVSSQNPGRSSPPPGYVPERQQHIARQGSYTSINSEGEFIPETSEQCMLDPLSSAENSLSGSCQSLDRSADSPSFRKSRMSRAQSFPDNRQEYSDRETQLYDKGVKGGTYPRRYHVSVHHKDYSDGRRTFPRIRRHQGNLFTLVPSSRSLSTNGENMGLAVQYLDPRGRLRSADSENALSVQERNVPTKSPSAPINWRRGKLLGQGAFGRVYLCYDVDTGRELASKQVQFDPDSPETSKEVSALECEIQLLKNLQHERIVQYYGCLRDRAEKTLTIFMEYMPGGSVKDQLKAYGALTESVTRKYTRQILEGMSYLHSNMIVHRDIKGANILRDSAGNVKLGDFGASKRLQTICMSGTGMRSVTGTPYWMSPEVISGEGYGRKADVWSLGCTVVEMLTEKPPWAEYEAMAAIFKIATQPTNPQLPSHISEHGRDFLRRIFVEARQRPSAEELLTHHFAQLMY
Protocol: as §1

PHKG2 = PHKG2 (Homo sapiens, UniProt P15735)
PHKG2, sequence (P15735 whole entry): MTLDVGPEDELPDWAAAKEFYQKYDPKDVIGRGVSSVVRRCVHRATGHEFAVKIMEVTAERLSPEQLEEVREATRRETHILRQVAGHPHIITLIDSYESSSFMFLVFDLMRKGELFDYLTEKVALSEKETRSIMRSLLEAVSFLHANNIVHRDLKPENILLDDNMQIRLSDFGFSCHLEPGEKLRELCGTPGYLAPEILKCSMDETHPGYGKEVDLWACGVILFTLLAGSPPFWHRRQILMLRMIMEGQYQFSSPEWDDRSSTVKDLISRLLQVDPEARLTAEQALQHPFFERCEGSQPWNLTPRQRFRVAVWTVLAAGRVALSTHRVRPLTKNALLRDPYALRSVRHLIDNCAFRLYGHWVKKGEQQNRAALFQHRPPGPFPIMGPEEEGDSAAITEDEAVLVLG
Protocol: as §1

DLK = DLK (Homo sapiens, UniProt Q12852)
Protocol: as §1

EGFR(T790M) = EGFR(T790M) (Homo sapiens, UniProt P00533, T790M)
Protocol: as §1

ZAP70 = ZAP70 (Homo sapiens, UniProt P43403)
Protocol: as §1

TRKB = TRKB (Homo sapiens, UniProt Q16620)
Protocol: as §1

TAK1 = TAK1 (Homo sapiens, UniProt O43318)
Protocol: as §1

TSSK3 = TSSK3 (Homo sapiens, UniProt Q96PN8)
TSSK3, sequence (Q96PN8 whole entry, species assumed): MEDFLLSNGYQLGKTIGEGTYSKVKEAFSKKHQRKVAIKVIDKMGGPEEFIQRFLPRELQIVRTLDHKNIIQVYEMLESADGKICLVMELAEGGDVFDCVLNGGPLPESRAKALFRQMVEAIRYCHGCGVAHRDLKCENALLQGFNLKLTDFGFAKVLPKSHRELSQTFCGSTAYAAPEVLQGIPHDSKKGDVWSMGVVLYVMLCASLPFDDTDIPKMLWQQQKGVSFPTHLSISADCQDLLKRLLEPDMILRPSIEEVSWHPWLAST
Protocol: as §1

CAMK1 = CAMK1 (Homo sapiens, UniProt Q14012)
Protocol: as §1

IRAK1 = IRAK1 (Homo sapiens, UniProt P51617)
IRAK1, sequence (P51617 whole entry, species assumed): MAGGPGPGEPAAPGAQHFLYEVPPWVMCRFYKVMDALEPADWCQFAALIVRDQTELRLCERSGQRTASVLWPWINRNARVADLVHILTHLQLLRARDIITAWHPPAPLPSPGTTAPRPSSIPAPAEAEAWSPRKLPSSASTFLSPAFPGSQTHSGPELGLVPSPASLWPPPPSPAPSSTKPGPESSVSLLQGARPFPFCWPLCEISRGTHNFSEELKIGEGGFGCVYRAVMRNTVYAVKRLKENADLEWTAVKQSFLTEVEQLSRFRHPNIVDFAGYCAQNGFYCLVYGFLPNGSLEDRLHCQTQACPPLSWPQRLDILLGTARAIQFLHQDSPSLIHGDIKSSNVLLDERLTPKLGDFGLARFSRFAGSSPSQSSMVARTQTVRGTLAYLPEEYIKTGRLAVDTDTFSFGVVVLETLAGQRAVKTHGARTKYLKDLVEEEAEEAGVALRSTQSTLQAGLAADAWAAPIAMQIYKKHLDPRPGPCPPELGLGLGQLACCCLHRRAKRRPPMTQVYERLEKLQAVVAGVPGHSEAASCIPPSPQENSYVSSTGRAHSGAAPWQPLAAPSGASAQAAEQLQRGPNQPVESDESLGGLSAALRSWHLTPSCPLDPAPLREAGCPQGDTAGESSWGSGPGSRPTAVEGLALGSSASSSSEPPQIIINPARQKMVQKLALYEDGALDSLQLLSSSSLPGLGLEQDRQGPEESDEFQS
Protocol: as §1

JAK3 = JAK3 (Homo sapiens, UniProt P52333)
JAK3, sequence (P52333 whole entry, species assumed): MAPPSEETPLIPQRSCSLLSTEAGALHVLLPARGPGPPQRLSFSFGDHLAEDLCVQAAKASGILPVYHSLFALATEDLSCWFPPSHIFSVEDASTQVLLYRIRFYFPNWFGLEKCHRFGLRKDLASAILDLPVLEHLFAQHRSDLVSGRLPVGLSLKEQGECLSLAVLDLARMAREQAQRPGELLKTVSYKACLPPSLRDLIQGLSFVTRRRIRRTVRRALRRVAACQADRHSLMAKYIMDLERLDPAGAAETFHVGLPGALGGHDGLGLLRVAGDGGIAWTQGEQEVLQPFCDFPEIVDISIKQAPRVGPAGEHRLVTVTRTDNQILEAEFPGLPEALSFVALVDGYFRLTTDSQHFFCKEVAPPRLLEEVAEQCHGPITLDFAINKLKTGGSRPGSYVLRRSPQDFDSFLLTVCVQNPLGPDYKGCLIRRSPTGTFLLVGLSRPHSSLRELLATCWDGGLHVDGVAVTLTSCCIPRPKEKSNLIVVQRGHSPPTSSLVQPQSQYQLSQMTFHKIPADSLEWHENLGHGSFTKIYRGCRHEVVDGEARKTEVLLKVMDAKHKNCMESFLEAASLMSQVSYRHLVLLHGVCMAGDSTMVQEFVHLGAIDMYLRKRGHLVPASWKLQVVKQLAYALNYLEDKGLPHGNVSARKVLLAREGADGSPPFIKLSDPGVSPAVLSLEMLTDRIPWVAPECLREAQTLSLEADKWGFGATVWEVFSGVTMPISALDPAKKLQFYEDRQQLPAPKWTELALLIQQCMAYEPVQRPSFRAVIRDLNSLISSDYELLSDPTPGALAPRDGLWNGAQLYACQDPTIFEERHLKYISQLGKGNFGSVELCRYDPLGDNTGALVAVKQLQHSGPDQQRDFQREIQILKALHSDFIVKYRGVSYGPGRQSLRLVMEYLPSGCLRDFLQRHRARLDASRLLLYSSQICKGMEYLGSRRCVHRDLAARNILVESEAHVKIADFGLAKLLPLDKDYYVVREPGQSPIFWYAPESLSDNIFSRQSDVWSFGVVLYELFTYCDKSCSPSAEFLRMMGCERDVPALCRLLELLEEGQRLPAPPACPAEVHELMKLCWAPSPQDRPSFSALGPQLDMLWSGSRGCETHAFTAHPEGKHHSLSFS
Protocol: as §1

VEGFR2 = VEGFR2 (Homo sapiens, UniProt P35968)
Protocol: as §1

Structure (SMILES): Cc1ccc(C#Cc2cc(NC(N)=O)c(C(=O)N[C@H]3CCCNC3)s2)cc1 [Example 24, (S)—N-(piperidin-3-yl)-5-(p-tolylethynyl)-3-ureidothiophene-2-carboxamide]
- inhibition at 1 µM (SYK): 91.5%
- inhibition at 1 µM (PDGFRB): 99.9%
- inhibition at 1 µM (BLK): 93.2%
- inhibition at 1 µM (FYN): 91.5%
- inhibition at 1 µM (PAK6): 90.3%
- inhibition at 1 µM (MAP4K2): 92.7%
- inhibition at 1 µM (LRRK2): 72%
- inhibition at 1 µM (CHEK2): 100%
- inhibition at 1 µM (MEK5): 99.9%
- inhibition at 1 µM (SRC): 98.1%
- inhibition at 1 µM (ULK2): 99.7%
- inhibition at 1 µM (SIK): 80%
- inhibition at 1 µM (CSK): 92.1%
- inhibition at 1 µM (RIPK4): 97.6%
- inhibition at 1 µM (EPHA3): 80%
- inhibition at 1 µM (BUB1): 97.4%
- inhibition at 1 µM (PAK4): 92.2%
- inhibition at 1 µM (AAK1): 80%
- inhibition at 1 µM (SIK2): 73%
- inhibition at 1 µM (ANKK1): 93.3%
- inhibition at 1 µM (YANK2): 76%
- inhibition at 1 µM (MLK1): 95.9%
- inhibition at 1 µM (DAPK3): 84%
- inhibition at 1 µM (MARK2): 79%
- inhibition at 1 µM (ULK1): 99.8%
- inhibition at 1 µM (MST1): 96.6%
- inhibition at 1 µM (MEK2): 93.3%
- inhibition at 1 µM (JAK2): 83%
- inhibition at 1 µM (PLK4): 81%
- inhibition at 1 µM (YANK1): 95.5%
- inhibition at 1 µM (MAP3K3): 94.6%
- inhibition at 1 µM (PHKG2): 89%
- inhibition at 1 µM (DLK): 68%
- inhibition at 1 µM (EGFR(T790M)): 85%
- inhibition at 1 µM (ZAP70): 63%
- inhibition at 1 µM (TRKB): 97.2%
- inhibition at 1 µM (TAK1): 91.5%
- inhibition at 1 µM (TSSK3): 72%
- inhibition at 1 µM (CAMK1): 67%
- inhibition at 1 µM (IRAK1): 90.7%
- inhibition at 1 µM (JAK3): 91.1%
- inhibition at 1 µM (VEGFR2): 73%
